Measured values taken from US20250108123A1, “COMPOUND-LINKER […] COMPOUNDS USEFUL AS STING AGONISTS AND USES THEREOF” (priority 2021, published 2025).
Where two headings read alike, the source gives them in different places.

Target: human STING WT (Homo sapiens (Human), UniProt Q86WV6)
Test: biochemical
Format: binding
Procedure: Cisbio Bioassays' human STING WI binding assay (#64BDSTGPEG & 64BDSTGPEH, Cisbio) is for quantitative measurement of human STING WI ligand using HTRF® technology.
Negative control: Dispense 5 μL of diluent into each negative control well. Standard: Dispense 5 μL of each Human STING WI Standard 2′3′-cGAMP (Std 0-Std 7) into each standard well. Compound: Dispense 5 μL of compound into each compound well.
Negative control: Add 5 μL of detection buffer to all wells. Other wells: Add 5 μL of human STING WT protein 6His-tagged protein to all wells.
Add 10 μL of premixed STING WT ligand d2 reagent and 6His Tb antibody working solution to all wells.
Seal the plate and incubate 3 hours at RT or at Over Night if necessary.
Remove the plate sealer and read on an HTRF® compatible reader (PerkinElmer, USA). Results were analyzed with a two-wavelength signal ratio: intensity (665 nm)/intensity (620 nm).
Cisbio Bioassays' human STING WT binding assay (#64BDSTGPEG & 64BDSTGPEH, Cisbio) is for quantitative measurement of human STING WT ligand using HTRF® technology.
Negative control: Dispense 5 μL of diluent into each negative control well. Standard: Dispense 5 μL of each Human STING WT Standard 2′3′-cGAMP (Std 0—Std 7) into each standard well. Compound: Dispense 5 μL of compound into each compound well.
[formula] • Fit the data in GraphPad to obtain IC50 values using equation (2)

[1] = HTRF, human STING WT 6His-tagged protein, incubation 3 hours at RT, read-out: hSTING WT binding IC50/nM
[2] = human STING WT, HTRF binding assay, read-out: hSTING WT binding IC50

human STING WT, sequence (Q86WV6 whole entry): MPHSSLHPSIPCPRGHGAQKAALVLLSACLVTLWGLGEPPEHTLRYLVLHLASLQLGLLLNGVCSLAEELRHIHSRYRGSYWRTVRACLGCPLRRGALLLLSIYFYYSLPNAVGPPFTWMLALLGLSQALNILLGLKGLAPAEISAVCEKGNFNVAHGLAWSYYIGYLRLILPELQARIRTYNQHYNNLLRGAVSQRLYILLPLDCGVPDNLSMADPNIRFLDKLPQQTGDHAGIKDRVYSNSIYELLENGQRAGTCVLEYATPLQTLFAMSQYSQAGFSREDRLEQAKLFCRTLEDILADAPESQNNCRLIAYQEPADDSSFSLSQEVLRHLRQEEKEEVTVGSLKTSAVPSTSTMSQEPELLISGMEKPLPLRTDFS

Compound | IC50 [1] | also measured
COc1cc2c(cc1CN(C)Cc1cc3c(cc1OC)CN(C(=O)CCC(=O)O)C3)CN(C(=O)CCC(=O)O)C2 [Example I-7, 4,4′-(((methylazanediyl)bis(methylene))bis(6-methoxyisoindoline-5,2-diyl))bis(4-oxobutanoic acid)] | > 150 nM | 
COc1cc2c(cc1OCCCOc1c(OC)cc3c(c1Cl)CN(C(=O)CCC(=O)O)C3)CN(C(=O)CCC(=O)O)C2 [Example I-8, 4-(5-(3-((2-(3-carboxypropanoyl)-4-chloro-6-methoxyisoindolin-5-yl)oxy)propoxy)-6-methoxyisoindolin-2-yl)-4-oxobutanoic acid] | > 150 nM | 
COc1cc2c(cc1OCCCOc1nc3cc(C(=O)CCC(=O)O)sc3cc1OC)CN(C(=O)CCC(=O)O)C2 [II-8, sodium 4-(5-(3-((2-(3-carboxylatopropanoyl)-6-methoxyisoindolin-5-yl)oxy)propoxy)-6-methoxythieno[3,2-b]pyridin-2-yl)-4-oxobutanoate] |  | IC50 [2]: 1.04 nM
C=C(COc1c(OC)cc2c(c1Cl)CN(C(=O)CCC(=O)O)C2)COc1c(OC)cc2c(c1Cl)CN(C(=O)CCC(=O)O)C2 [Example I-11, 4,4′-(((2-methylenepropane-1,3-diyl)bis(oxy))bis(4-chloro-6-methoxyisoindoline-5,2-diyl))bis(4-oxobutanoic acid)] | > 150 nM | 
COc1cc2c(cc1OCCCOc1cc3cc(C(=O)CCC(=O)O)sc3cc1Br)CN(C(=O)CCC(=O)O)C2 [II-9, 4-(5-(3-((6-bromo-2-(3-carboxypropanoyl)benzo[b]thiophen-5-yl)oxy)propoxy)-6-methoxyisoindolin-2-yl)-4-oxobutanoic acid] |  | IC50: 0.65 nM
COc1cc2c(c(Cl)c1OCCCOc1c(OC)cc3c(c1Cl)CN(C(=O)CCC(=O)O)C3)CN(C(=O)CCC(=O)O)C2 [Example I-12, 4,4′-((propane-1,3-diylbis(oxy))bis(4-chloro-6-methoxyisoindoline-5,2-diyl))bis(4-oxobutanoic acid)] | > 150 nM | 
C=C(COc1c(OC)cc2c(c1Cl)CN(C(=O)CCC(=O)O)C2)COc1c(OC)cc2sc(C(=O)CCC(=O)O)cc2c1F [II-16, 4-(5-((2-(((2-(3-carboxypropanoyl)-4-chloro-6-methoxyisoindolin-5-yl)oxy)methyl)allyl)oxy)-4-fluoro-6-methoxybenzo[b]thiophen-2-yl)-4-oxobutanoic acid] |  | IC50 [2]: > 150 nM
COc1cc2c(cc1OCCCOc1cc3cc(C(=O)CCC(=O)O)sc3cc1O)CN(C(=O)CCC(=O)O)C2 [II-7, sodium 4-(5-(3-((2-(3-carboxylatopropanoyl)-6-hydroxybenzo[b]thiophen-5-yl)oxy)propoxy)-6-methoxyisoindolin-2-yl)-4-oxobutanoate] |  | IC50: 0.36 nM
